From PMC6093661, “Vitamin E hydroquinone is an endogenous regulator of ferroptosis via redox control of 15-lipoxygenase” (PLoS ONE, 2018)
pEC50, pIC50: −log10 of the molar value. Like-named read-outs stand apart in the source and are kept apart here.

Columns and labels:
[1] = test system: Mouse striatal Q7 cells (STHdhQ7/Q7); assay: RSL3 ferroptosis cell rescue (cellular survival assay, CellTiter-Glo); details: for pEC50: Mus musculus, 18 h, read-out: RSL3 Ferroptosis Cell Assay Average EC50, Q7 cells, RSL3 2 μM, 18 h co-treatment, CellTiter-Glo 2.0
[2] = biological target: T1, Rabbit 15-lipoxygenase (rLOX15) (Oryctolagus cuniculus, UniProt P12530); assay: Lipoxygenase enzyme inhibition assay; assay type: biochemical; details: for activity at 100 µM: read-out: 15-Lipoxygenase Enzyme Assay % activity at 100 μM; for pIC50: 50 μM arachidonic acid substrate
T1 construct: purchased Enzo Life Sciences, Inc. BML-PL015
T1 sequence (P12530 1-663): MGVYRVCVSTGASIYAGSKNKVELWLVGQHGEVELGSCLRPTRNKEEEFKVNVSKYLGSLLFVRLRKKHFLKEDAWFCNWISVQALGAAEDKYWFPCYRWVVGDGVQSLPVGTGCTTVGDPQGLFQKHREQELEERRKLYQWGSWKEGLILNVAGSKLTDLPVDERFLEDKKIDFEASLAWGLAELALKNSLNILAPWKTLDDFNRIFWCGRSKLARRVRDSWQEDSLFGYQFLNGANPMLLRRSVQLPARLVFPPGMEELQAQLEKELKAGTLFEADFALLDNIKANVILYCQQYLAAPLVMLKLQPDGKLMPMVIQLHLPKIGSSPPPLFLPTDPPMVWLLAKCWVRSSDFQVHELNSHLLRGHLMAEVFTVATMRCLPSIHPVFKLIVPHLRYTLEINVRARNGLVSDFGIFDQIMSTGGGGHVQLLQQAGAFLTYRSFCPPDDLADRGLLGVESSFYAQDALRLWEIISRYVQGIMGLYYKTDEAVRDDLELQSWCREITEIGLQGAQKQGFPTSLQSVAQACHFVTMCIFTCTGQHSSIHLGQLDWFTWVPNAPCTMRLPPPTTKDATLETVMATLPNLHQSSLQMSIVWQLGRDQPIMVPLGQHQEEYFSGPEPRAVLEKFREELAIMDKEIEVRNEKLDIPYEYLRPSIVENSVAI
Protocol: Rabbit 15-lipoxygenase (rLOX15, part number BML-PL015, lot number 3-P9009a) was obtained from Enzo Life Sciences, Inc. Sodium cholate (part number C6445, lot number 094K0209) was obtained from Sigma-Aldrich.
Stock solutions of test compounds were prepared in DMSO and then diluted to final assay concentrations in cholate mix such that final cholate and DMSO concentrations were maintained at 0.2%.

SMILES	pEC50 [1]	activity at 100 µM ([2]; rabbit 15-LO, compound 100 μM)	fold more potent in inhibiting ferroptosis, tocotrienol vs corresponding tocopherol ([1]; Q7 cells, RSL3, EC50 ratio)	pIC50 ([2]; rabbit 15-LO)	activity at 100 µM [2]
Cc1c(C)c2c(c(C)c1O)CC[C@@](C)(CCC(=O)O)O2 [α-CEHC]	5.07	24%			
CC(C)=CCC/C(C)=C/CC/C(C)=C/CC[C@]1(C)CCc2c(C)c(O)c(C)c(C)c2O1 [αT3, α-tocotrienol]	6.78	64%	~ 30 fold	< 4.00	
CC(C)=CCC/C(C)=C/CC/C(C)=C/CC[C@@](C)(O)CCc1c(C)c(O)c(C)c(C)c1O [αT3HQ, α-tocotrienol hydroquinone]	7.37	9%		5.70	
CC(C)=CCC/C(C)=C/CC/C(C)=C/CC[C@@](C)(O)CCC1=C(C)C(=O)C(C)=C(C)C1=O [αT3Q, α-tocotrienol quinone]	7.37				
CC(C)=CCC/C(C)=C/CC/C(C)=C/CC[C@]1(C)CCc2cc(O)c(C)c(C)c2O1 [γT3, γ-tocotrienol]					33%
CC(C)=CCC/C(C)=C/CC/C(C)=C/CC[C@@](C)(O)CCc1cc(O)c(C)c(C)c1O [γT3HQ, γ-tocotrienol hydroquinone]	7.44	7%		5.95	
CC(C)=CCC/C(C)=C/CC/C(C)=C/CC[C@@](C)(O)CCC1=CC(=O)C(C)=C(C)C1=O [γT3Q, γ-tocotrienol quinone]	7.28				
Cc1c(O)cc2c(c1C)O[C@](C)(CCC[C@H](C)CCC[C@H](C)CCCC(C)C)CC2 [γT, γ-tocopherol]	5.49	34%			
Cc1c(O)cc(CC[C@](C)(O)CCC[C@H](C)CCC[C@H](C)CCCC(C)C)c(O)c1C [γTHQ, γ-tocopherol hydroquinone]	7.19	18%		5.66	
CC1=C(C)C(=O)C(CC[C@](C)(O)CCC[C@H](C)CCC[C@H](C)CCCC(C)C)=CC1=O [γTQ, γ-tocopherol quinone]	7.00				
CC(C)=CCC/C(C)=C/CC/C(C)=C/CC[C@]1(C)CCc2cc(O)cc(C)c2O1 [δT3, δ-tocotrienol]	6.29	46%			
CC(C)=CCC/C(C)=C/CC/C(C)=C/CC[C@@](C)(O)CCc1cc(O)cc(C)c1O [δT3HQ, δ-tocotrienol hydroquinone]	6.84	14%		5.86	
CC(C)=CCC/C(C)=C/CC/C(C)=C/CC[C@@](C)(O)CCC1=CC(=O)C=C(C)C1=O [δT3Q, δ-tocotrienol quinone]	6.79				
Cc1cc(O)cc2c1O[C@](C)(CCC[C@H](C)CCC[C@H](C)CCCC(C)C)CC2 [δT, δ-tocopherol]	5.25	45%			
Cc1cc(O)cc(CC[C@](C)(O)CCC[C@H](C)CCC[C@H](C)CCCC(C)C)c1O [δTHQ, δ-tocopherol hydroquinone]	7.08	17%		5.68	
CC1=CC(=O)C=C(CC[C@](C)(O)CCC[C@H](C)CCC[C@H](C)CCCC(C)C)C1=O [δTQ]	6.63				
